Values of other authors as cited in patent US10296863B2, “Wireless sensor devices for post-harvest crop quality and pest management” (priority 2017, dated 2019).
Like-named read-outs stand apart in the source and are kept apart here.

Experiments:
[1] = system: resistant cigarette beetle
[2] = system: tobacco moth and susceptible cigarette beetle
[3] = tobacco temperature 16-20 °C (61-68 °F), 300 ppm phosphine at the bale/case centre

P [phosphine]
Minimum Exposure Time to achieve 100% control [1, 3]: 12 days | Minimum Exposure Time to achieve 100% control ([1]; tobacco temperature 20-25 °C (68-77 °F), 300 ppm phosphine at the bale/case centre): 12 days | Minimum Exposure Time to achieve 100% control ([1]; tobacco temperature 20-25 °C (68-77 °F), 700 ppm phosphine at the bale/case centre): 10 days | Minimum Exposure Time to achieve 100% control ([1]; tobacco temperature >25 °C (>77 °F), 300 ppm phosphine at the bale/case centre): 12 days | Minimum Exposure Time to achieve 100% control ([1]; tobacco temperature >25 °C (>77 °F), 600 ppm phosphine at the bale/case centre): 6 days | Minimum Exposure Time to achieve 100% control [2, 3]: 6 days | Minimum Exposure Time to achieve 100% control ([2]; tobacco temperature >20 °C (>68 °F), 200 ppm phosphine at the bale/case centre): 4 days
